Legend:
[1] = tested on: HT-29 colon cancer xenograft; assay: HT-29 xenograft efficacy of liposome-entrapped CKD-602 (Example 5); assay type: in vivo, mice
[2] = Plasma pharmacokinetics of liposome-entrapped and free CKD-602 in rats; settings: 1 mg/kg
in vivo = settings: rat
[3] = Plasma pharmacokinetics of liposome-entrapped and free topotecan in rats; assay type: in vivo; settings: for Vol. Dist. / elimination rate constant: i.v.; for AUC / Cmax / clearance / half-life: rat, plasma, iv; for half-life: read-out: T ½ (converted)
Experimental: FIGS. 4A–4B show the plasma concentration of topotecan as a function of time after administration to rats. […] FIG. 4B compares the two forms of the drug at a dosage of 5 mg/kg.

[4] = tested on: HT-29 subcutaneous xenograft tumor; assay type: in vivo
[5] = 20 mg/kg i.v. days 11, 18, 25, animals/group
[6] = 25 mg/kg i.v. days 9, 16, 23, groups of 12 mice

CC[C@@]1(O)C(=O)OCc2c1cc1n(c2=O)Cc2c-1nc1ccccc1c2CCNC(C)C [free CKD602]
tumor growth rate ([1]; 20 mg/kg): 15.21 mm^3 per day | % T/C Day 29 ([1]; 20 mg/kg i.v. days 11, 18, 25): 129.1% | % T/C Day 33 ([1]; 20 mg/kg i.v. days 11, 18, 25): 120.1% | % T/C Day 36 ([1]; 20 mg/kg i.v. days 11, 18, 25): 99.9% | Complete Remission [1, 5]: 0/6 | Non-Responsive [1, 5]: 6/6 | Partial Remission [1, 5]: 0/6 | AUC [2]: 0.37 µg/mL/h | calculated half-life [2]: 12 min

CC[C@@]1(O)C(=O)OCc2c1cc1n(c2=O)Cc2c-1nc1cc3c(cc1c2CN1CCN(C)CC1)OCCO3 [free MPE-camptothecin, 7-(4-methyl-piperazino-methylene)-10,11-ethylenedioxy-20(S)-camptothecin]
half-life (in vivo): ~50 min

CC[C@@]1(O)C(=O)OCc2c1cc1n(c2=O)Cc2cc3c(CN(C)C)c(O)ccc3nc2-1 [free topotecan, 9-dimethyl-aminomethyl-10-hydroxycamptothecin]
Vol. Dist. ([3]; Dosage = 2 mg/kg): 173 mL | elimination rate constant ([3]; Dosage = 2 mg/kg): 3.45 h⁻¹ | Vol. Dist. ([3]; Dosage = 5 mg/kg): 278 mL | elimination rate constant ([3]; Dosage = 5 mg/kg): 2.33 h⁻¹ | AUC ([3]; Dosage = 2 mg/kg): 570 ng·h/mL | Cmax ([3]; Dosage = 2 mg/kg): 2890 ng/mL | clearance ([3]; Dosage = 2 mg/kg): 14.8 mL/min | half-life ([3]; Dosage = 2 mg/kg): 12 min | AUC ([3]; Dosage = 5 mg/kg): 1570 ng·h/mL | Cmax ([3]; Dosage = 5 mg/kg): 8230 ng/mL | clearance ([3]; Dosage = 5 mg/kg): 13.7 mL/min | half-life ([3]; Dosage = 5 mg/kg): 18 min | tumor growth rate ([4]; 25 mg/kg): 14.1 mm^3 per day | % T/C Day 29 ([4]; 25 mg/kg i.v. days 9, 16, 23): 82.8% | % T/C Day 33 ([4]; 25 mg/kg i.v. days 9, 16, 23): 79.0% | % T/C Day 36 ([4]; 25 mg/kg i.v. days 9, 16, 23): 85.9% | Complete Remission (number of animals) [4, 6]: 0 | Non-Responsive (number of animals) [4, 6]: 11 | Partial Remission (number of animals) [4, 6]: 1

Source: US7279179B2, “Liposome-entrapped topoisomerase inhibitors” (ALZA Corporation, priority 1988, dated 2007)
